In the supplement of paper PMC11451515:

Legend:
Conditions in all cases: 48 h
[1] = system: SEM cells; assay: cell viability relative to DMSO control; higher = less cytotoxic
Method in brief: (§1)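 In 1536-well plates, 5 μl of leukemia cells were seeded per well: 500 cells/well for NOMO1 or SEM and 1000 cells/well for P12-Ichikawa. Each line had first been adapted for at least four passages in each medium. Library compounds in DMSO were pin-dosed at 11 threefold concentrations between 47 μM and 0.79 nM, and CellTiter-Glo One luminescence was read after 48 h at 37°C. Viability is a per-plate percentage relative to DMSO wells, with cell-free wells as background.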

[2] = system: P12-Ichikawa; assay: as above
Method in brief: as §1

[3] = system: NOMO1; assay: as above
Method in brief: as §1

[4] = system: SEM cells; assay: AUC of viability dose-response curve (% viability x log10 dose units); higher = less sensitive
Method in brief: (§2)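 Leukemia cells adapted to each medium were seeded in 1536-well plates (500 or 1000 cells/well) and given library compounds in DMSO for 48 h at 37°C. The 11 threefold doses spanned 47 μM to 0.79 nM, and CellTiter-Glo One luminescence was normalised per plate to DMSO and cell-free wells before four-parameter log-logistic fitting on log10 dose. Area under the curve was integrated with the trapezoidal rule, scaling curves above full viability and removing curves that failed quality control.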

[5] = system: P12-Ichikawa; assay: as above
Method in brief: as §2

[6] = system: NOMO1; assay: as above
Method in brief: as §2

O=C1Nc2ccc(I)cc2/C1=C/c1cc(Br)c(O)c(Br)c1
cell viability [%]
Conditions | [1] | [2] | [3]
HPLM + 10% dialyzed FBS, 0.000781 µM | 98.4 | 103 | 111
HPLM + 10% dialyzed FBS, 0.00234 µM | 107 | 100 | 96.5
HPLM + 10% dialyzed FBS, 0.00702 µM | 103 | 103 | 109
HPLM + 10% dialyzed FBS, 0.0211 µM | 104 | 105 | 106
HPLM + 10% dialyzed FBS, 0.0632 µM | 101 | 109 | 109
HPLM + 10% dialyzed FBS, 0.19 µM | 111 | 105 | 111
HPLM + 10% dialyzed FBS, 0.569 µM | 107 | 108 | 98.6
HPLM + 10% dialyzed FBS, 1.71 µM | 96.5 | 102 | 99.9
HPLM + 10% dialyzed FBS, 5.12 µM | 105 | 102 | 118
HPLM + 10% dialyzed FBS, 15.4 µM | 94.6 | 98.2 | 101
HPLM + 10% dialyzed FBS, 46.1 µM | 76.8 | 86.4 | 78.9
RPMI 5 mM glucose + 10% FBS, 0.000781 µM | 113 | 99 | 86.6
RPMI 5 mM glucose + 10% FBS, 0.00234 µM | 113 | 110 | 98.1
RPMI 5 mM glucose + 10% FBS, 0.00702 µM | 105 | 106 | 96.5
RPMI 5 mM glucose + 10% FBS, 0.0211 µM | 112 | 103 | 102
RPMI 5 mM glucose + 10% FBS, 0.0632 µM | 102 | 101 | 96.2
RPMI 5 mM glucose + 10% FBS, 0.19 µM | 115 | 104 | 100
RPMI 5 mM glucose + 10% FBS, 0.569 µM | 118 | 102 | 96.8
RPMI 5 mM glucose + 10% FBS, 1.71 µM | 110 | 104 | 97.6
RPMI 5 mM glucose + 10% FBS, 5.12 µM | 108 | 101 | 102
RPMI 5 mM glucose + 10% FBS, 15.4 µM | 88.4 | 96.7 | 88.6
RPMI 5 mM glucose + 10% FBS, 46.1 µM | 67.5 | 79 | 83
RPMI 5 mM glucose + 10% dialyzed FBS, 0.000781 µM | 115 | 106 | 95.4
RPMI 5 mM glucose + 10% dialyzed FBS, 0.00234 µM | 109 | 111 | 93.3
RPMI 5 mM glucose + 10% dialyzed FBS, 0.00702 µM | 115 | 110 | 90.9
RPMI 5 mM glucose + 10% dialyzed FBS, 0.0211 µM | 111 | 107 | 92.8
RPMI 5 mM glucose + 10% dialyzed FBS, 0.0632 µM | 121 | 103 | 92
RPMI 5 mM glucose + 10% dialyzed FBS, 0.19 µM | 106 | 111 | 85.9
RPMI 5 mM glucose + 10% dialyzed FBS, 0.569 µM | 121 | 108 | 104
RPMI 5 mM glucose + 10% dialyzed FBS, 1.71 µM | 110 | 101 | 96.8
RPMI 5 mM glucose + 10% dialyzed FBS, 5.12 µM | 104 | 100 | 101
RPMI 5 mM glucose + 10% dialyzed FBS, 15.4 µM | 89 | 93.4 | 95.3
RPMI 5 mM glucose + 10% dialyzed FBS, 46.1 µM | 62.5 | 84 | 76.6

AUC of viability dose-response curve
Conditions | [4] | [5] | [6]
HPLM + 10% dialyzed FBS | 466 | 469 | 469
RPMI 5 mM glucose + 10% FBS | 457 | 468 | 457
RPMI 5 mM glucose + 10% dialyzed FBS | 451 | 458 | 448
